Patent US7371769B2, “Tetrahydropyridin-4-yl indoles with a combination of affinity for dopamine-D2 receptors and serotonin reuptake sites” (Solvay Pharmaceuticals B.V., priority 2004, dated 2008)
Structures can show the parent of a compound that is named as a salt.

Experiments:
[1] = molecular target: T1, dopamine-D2 receptors (Rattus norvegicus, UniProt P61169); assay: In vitro affinity for dopamine-D2 receptors ([3H]-spiroperidol receptor binding assay); conditions: read-out: Dopamine-D2 pKi (converted)
T1 construct: labels dopamine receptors in rat pituitary and brain; from tissue; host or cells: rat pituitary / brain (from the title of the cited method only)
Experimental: In vitro Affinity for Dopamine-D2 Receptors
Affinity of the compounds for dopamine-D2 receptors was determined using the receptor binding assay described by I. Creese, R. Schneider and S. H. Snyder: “[^3H]-Spiroperidol labels dopamine receptors in rat pituitary and brain”, Eur. J. Pharmacol., 46, 377-381,1977.
(§1) The affinity of the compounds of the invention for dopamine-D2 receptors and serotonine reuptake sites was determined as described above. From the binding affinity measured for a given compound of formula (1), one can estimate a theoretical lowest effective dose. At a concentration of the compound equal to twice the measured Ki-value, 100% of the receptors likely will be occupied by the compound. Converting that concentration to mg of compound per kg of patient yields a theoretical lowest effective dose, assuming ideal bioavailability. Pharmacokinetic, pharmacodynamic, and other considerations may alter the dose actually administered to a higher or lower value. The dosage expediently administered is 0.001-1000 mg/kg, preferably 0.1-100 mg/kg of patient's bodyweight.

[2] = molecular target: T2, serotonin reuptake sites (Rattus norvegicus, UniProt P31652); assay: In vitro affinity for serotonin reuptake sites ([3H]-paroxetine binding assay); conditions: read-out: 5-HT reuptake pKi (converted)
T2 construct: from tissue; host or cells: rat cortical membranes (from the title of the cited method only)
Experimental: In vitro Affinity for Serotonin Reuptake Sites
Affinity of the compounds for serotonin reuptake sites was determined using the receptor binding assay described by E. Habert et al.,: “Characterisation of [^3H]-paroxetine binding to rat cortical membranes”, Eur. J. Pharmacol., 118, 107-114, 1985.
as §1

T2 sequence (P31652 whole entry): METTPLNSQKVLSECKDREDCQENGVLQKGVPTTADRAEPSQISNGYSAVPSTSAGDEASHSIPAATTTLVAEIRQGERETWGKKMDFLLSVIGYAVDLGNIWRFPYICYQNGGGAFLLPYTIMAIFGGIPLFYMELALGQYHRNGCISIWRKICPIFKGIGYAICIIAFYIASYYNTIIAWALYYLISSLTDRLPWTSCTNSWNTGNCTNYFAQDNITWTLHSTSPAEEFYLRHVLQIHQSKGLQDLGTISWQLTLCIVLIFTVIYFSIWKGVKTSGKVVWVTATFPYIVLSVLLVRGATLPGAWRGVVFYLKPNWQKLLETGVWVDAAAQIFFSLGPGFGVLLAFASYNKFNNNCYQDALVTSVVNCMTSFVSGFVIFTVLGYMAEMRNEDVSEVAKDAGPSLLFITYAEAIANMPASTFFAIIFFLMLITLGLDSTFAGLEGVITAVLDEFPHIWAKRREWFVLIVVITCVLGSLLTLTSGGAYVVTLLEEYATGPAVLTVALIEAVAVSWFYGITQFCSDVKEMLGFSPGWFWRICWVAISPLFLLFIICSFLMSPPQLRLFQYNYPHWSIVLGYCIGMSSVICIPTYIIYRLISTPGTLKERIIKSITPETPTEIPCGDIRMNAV
T1 sequence (P61169 whole entry): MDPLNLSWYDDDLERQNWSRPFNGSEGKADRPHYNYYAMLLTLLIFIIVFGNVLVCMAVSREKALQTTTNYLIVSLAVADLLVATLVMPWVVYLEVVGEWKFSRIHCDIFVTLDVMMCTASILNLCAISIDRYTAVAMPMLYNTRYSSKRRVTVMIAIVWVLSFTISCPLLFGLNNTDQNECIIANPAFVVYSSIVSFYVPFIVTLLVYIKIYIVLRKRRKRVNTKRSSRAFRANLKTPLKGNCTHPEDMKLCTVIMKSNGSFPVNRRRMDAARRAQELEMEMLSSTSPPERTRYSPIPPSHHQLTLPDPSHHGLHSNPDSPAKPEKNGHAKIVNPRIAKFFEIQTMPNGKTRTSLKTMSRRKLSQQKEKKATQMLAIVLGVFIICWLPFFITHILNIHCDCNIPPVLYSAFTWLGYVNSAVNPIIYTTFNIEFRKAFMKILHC

| Structure (SMILES) | Ki [1] [nM] | Ki [2] [nM] | melting point |
| --- | --- | --- | --- |
| CCc1ccn2c(=O)c(CCN3CC=C(c4c[nH]c5ccc(F)cc45)CC3)c(C)nc2c1 [Compound 24] | 10 | 7.94 |  |
| COc1nc(C)c(CCN2CC=C(c3c[nH]c4ccccc34)CC2)c(=O)n1C (as salt: HCl) [Compound 18, 5-[2-[4-(1H-indol-3-yl)-1,2,3,6-tetrahydropyridin-1-yl]ethyl]-2-methoxy-3,6-dimethyl-3H-pyrimidin-4-one] |  |  | 209 to 211 °C |
| Cc1ccn2c(=O)c(CCN3CC=C(c4c[nH]c5ccccc45)CC3)c(C)nc2c1 (as salt: HCl) [Compound 15] |  |  | 261 to 264 °C |
| Cc1nc2ccccn2c(=O)c1CCN1CC=C(c2c[nH]c3ccccc23)CC1 [Compound 1] | 20 | 1.58 |  |
| Cc1ncn(C)c(=O)c1CCN1CC=C(c2c[nH]c3ccc(F)cc23)CC1 [Compound 33] | 50.1 | 3.16 |  |
| Cc1ccn2c(=O)c(CCN3CC=C(c4c[nH]c5ccc(F)cc45)CC3)c(C)nc2c1 [Compound 21] | 31.6 | 0.158 |  |
| Cc1nc2c(C)cccn2c(=O)c1CCN1CC=C(c2c[nH]c3ccccc23)CC1 [Compound 22, 3-[2-[4-(1H-indol-3-yl)-1,2,3,6-tetrahydropyridin-1-yl]-ethyl]-2,9-dimethyl-4H-pyrido[1,2-a]pyrimidin-4-one] | 7.94 | 1.58 |  |
| CCc1ccn2c(=O)c(CCN3CC=C(c4c[nH]c5ccc(F)cc45)CC3)c(C)nc2c1 (as salt: salt) [Compound 24] |  |  | 198 to 201 °C |
| Cc1nc2ccccn2c(=O)c1CCN1CC=C(c2c[nH]c3ccc(F)cc23)CC1 [Compound 7] | 15.8 | 0.316 |  |
| Cc1nc2c(C)cccn2c(=O)c1CCN1CC=C(c2c[nH]c3ccc(F)cc23)CC1 (as salt: salt) |  |  | 229 to 230 °C |
| CSc1nc(C)c(CCN2CC=C(c3c[nH]c4ccccc34)CC2)c(=O)[nH]1 [Compound 14] | 100 | 50.1 |  |
| Cc1nc2n(c(=O)c1CCN1CC=C(c3c[nH]c4ccccc34)CC1)CCS2 [Compound 10] | 15.8 | 1.58 |  |
| CSc1nc(C)c(CCN2CC=C(c3c[nH]c4ccc(F)cc34)CC2)c(=O)n1C [Compound 19] | 6.31 | 25.1 |  |
| Cc1nc2cc(-c3ccccc3)ccn2c(=O)c1CCN1CC=C(c2c[nH]c3ccccc23)CC1 [Compound 27] | 63.1 | 0.316 |  |
| COc1nc(C)c(CCN2CC=C(c3c[nH]c4ccccc34)CC2)c(=O)n1C [Compound 18, 5-[2-[4-(1H-indol-3-yl)-1,2,3,6-tetrahydropyridin-1-yl]ethyl]-2-methoxy-3,6-dimethyl-3H-pyrimidin-4-one] | 31.6 | 0.794 |  |
| CSc1nc(C)c(CCN2CC=C(c3c[nH]c4ccccc34)CC2)c(=O)n1C (as salt: salt) |  |  | 245 to 246 °C |
| CSc1nc(C)c(CCN2CC=C(c3cn(C)c4ccccc34)CC2)c(=O)n1C [Compound 20] | 100 | 7.94 |  |
| Cc1ncn(C)c(=O)c1CCN1CC=C(c2c[nH]c3ccc(F)cc23)CC1 (as salt: salt) [Compound 33] |  |  | 234 to 235 °C (dec.) |
| Cc1nc2sccn2c(=O)c1CCN1CC=C(c2c[nH]c3ccccc23)CC1 [Compound 11] | 10 | 2.51 |  |
| CSc1nc(C)c(CCN2CC=C(c3c[nH]c4ccc(F)cc34)CC2)c(=O)n1C (as salt: salt) [Compound 19] |  |  | 229 °C (dec.) |
| Cc1nc2ccccn2c(=O)c1CCN1CC=C(c2c[nH]c3ccc(F)cc23)CC1 (as salt: salt) [Compound 7] |  |  | 226 to 227 °C (dec.) |
| Cc1nc2cc(-c3ccccc3)ccn2c(=O)c1CCN1CC=C(c2c[nH]c3ccccc23)CC1 (as salt: salt) [Compound 27] |  |  | 211 to 224 °C |
| Cc1nc2ccccn2c(=O)c1CCN1CC=C(c2c[nH]c3ccccc23)CC1 (as salt: HCl) [Compound 1] |  |  | 205 °C (dec.) |
| Cc1ccn2c(=O)c(CCN3CC=C(c4c[nH]c5ccccc45)CC3)c(C)nc2c1 [Compound 15] | 7.94 | 3.98 |  |
| Cc1nc2c(C)cccn2c(=O)c1CCN1CC=C(c2c[nH]c3ccccc23)CC1 (as salt: salt) [Compound 22, 3-[2-[4-(1H-indol-3-yl)-1,2,3,6-tetrahydropyridin-1-yl]-ethyl]-2,9-dimethyl-4H-pyrido[1,2-a]pyrimidin-4-one] |  |  | 242 to 246 °C |
